Patent US6555124B1, “Use of (meth)acrylic acid copolymers to increase the permeability of mucous membranes” (BASF Aktiengesellschaft, priority 1996, dated 2003)

What was measured:
caco-2 cell tissue = experiment: in vitro
Excerpt: (§1) This cell line forms on polycarbonate membranes a tissue assemblage which is very similar in appearance and protein composition to small intestinal […]. In the Transwell system (from Costar, Bodenheim, Germany), this artificial endothelial tissue separates two chambers, which are filled with medium, into the apical and the basolateral compartment. This design allows the permeation of a substance through the caco-2 tissue layer to be determined. […] An improvement in permeability is indicated by the reversible opening of the tight junctions.
(§2) Caco-2 cells were cultivated in DMEM (Dulbeccos Modified Eagle's Medium, from Gibco BRL, Eggenstein, Germany) with 10% FCS (fetal calf serum), 1% L-glutamine and 4.5 mg/ml glucose at 37° C. with 5% CO2 and 95% relative humidity. After trypsinization, the cells were spread at a density of 3×10^5 cells/cm^2 on transwell polycarbonate filters. Cells between the 30th and 50th passage were used to form monolayers. The monolayers were employed in the experiment 15-21 days (medium change every three days) after spreading of the cells.
(§3) Before the experiment, the caco-2 cell tissue was washed in the Transwell filter inserts with PBS (phosphate buffer saline). Then the apical compartment was filled with EBSS (Earl's buffered salt solution, pH 6) and the basolateral compartment was filled with DMEM. After addition of the polymer to be tested, which had been neutralized to pH 7, [Kollicoat® MAE 30D (ethyl acrylate/methacrylic acid 1:1, BASF), Eudragit® L100 (methacrylic acid/methyl methacrylate 1:1, Röhm), Eudragit® S100 (methacrylic acid/methyl methacrylate 1:2, Röhm)] in a concentration of 0.5-3% by weight and of the tracer substance into the apical compartment, samples were taken after 24 hours, and the permeation rate of the tracer substance was determined.
(§4) The experiments were analyzed by fluorescence spectrophotometry (Spex Fluorolog 1680: excitation wavelength: 488 nm, emission wavelength: 513 nm), and in the case of C22H32N6O4 by HPLC (column material: Vidac C-18; mobile phase: water/acetonitrile/0.1% trifluoroacetic acid; detection: 240 nm), the experimental results are compiled in Table 1. Measurements which were not done have been indicated by “−”.

in vitro = conditions: human, Caco-2, pH 6
Excerpt: as §1, §2, §3, §4

Row | Compound | Permeation rate (caco-2 cell tissue; human, Caco-2, 24 h, pH 6) | Papp A→B at 24 h (in vitro) [×10⁻⁶ cm/s] | Permeation rate (caco-2 cell tissue; Control (no polymer), caco-2 monolayer, apical EBSS pH 6, samples after 24 hours) | Permeation rate (caco-2 cell tissue; with Eudragit L 100 2.0% by weight (neutralized to pH 7) apical, 24 hours) | Permeation rate (caco-2 cell tissue; with Eudragit S 100 2.0% by weight (neutralized to pH 7) apical, 24 hours) | Permeation rate (caco-2 cell tissue; with Kollicoat MAE 30 D 0.5% by weight (neutralized to pH 7) apical, 24 hours) | Permeation rate (caco-2 cell tissue; with Kollicoat MAE 30 D 1.0% by weight (neutralized to pH 7) apical, 24 hours) | Permeation rate (caco-2 cell tissue; with Kollicoat MAE 30 D 1.5% by weight (neutralized to pH 7) apical, 24 hours)
1 | N=C(N)c1ccc(CNC(=O)[C@@H]2CCCN2C(=O)[C@H](NCC(=O)O)C2CCCCC2)cn1 [C22H32N6O4, HOOC—CH2—(D)-Cha-Pro-NH-3-(6-Am)-Pico] | 56 (cm/sec) · 10^−8 | 0.56 | – | – | – | – | – | –
2 | O=C(CCCCCNC(=O)CCCC[C@@H]1SC[C@@H]2NC(=O)N[C@@H]21)NCCCCCNC(=S)Nc1ccc2c(c1)C(=O)OC21c2ccc(O)cc2Oc2cc(O)ccc21 [Fluorescein-biotin, (biotin-amidocaproylamido)-(pentylthioureidyl)-fluorescein] | – | – | 2.3 (cm/sec) · 10^−8 | 4.8 (cm/sec) · 10^−8 | 7.1 (cm/sec) · 10^−8 | 2.3 (cm/sec) · 10^−8 | 5.8 (cm/sec) · 10^−8 | 20 (cm/sec) · 10^−8
